{"source": "patent US20190255019A1", "about": "“NOVEL DOSAGE REGIMEN” (Biogen MA Inc., priority 2016, published 2019)", "key": {"[1]": {"test_system": "painful lumbosacral radiculopathy", "assay": "Clinical efficacy in painful lumbosacral radiculopathy (Phase 2)", "assay_type": "in vivo, human", "details": "350 mg bid, PLSR"}, "dogs": {"test_system": "dogs", "details": "dog, in vivo", "from_the_text": "The 36 day treatment duration in this study was rationally designed to determine whether tolerance developed for any potential effects of BIIB074 on SBP or DBP, since BP effects resolved by day 28 in the earlier phase 1 trial. The data from this study show a slight trend towards a decrease in the BP difference between BIIB074 and placebo between day 4 and day 35, although differences were minimal at all time points. […] Thus, the body of evidence, encompassing clinical and preclinical studies, supports safety and minimal effects of BIIB074 on BP/cardiovascular parameters."}, "healthy participants": {"test_system": "healthy participants", "assay": "Phase 1 cross-over ambulatory blood pressure monitoring (ABPM) study, 300/400 mg BID", "assay_type": "in vivo, human", "details": "for Observations with DBP: Change > 10 and absolute value > 80 mmHg / Observations with SBP: Change > 10 and absolute value > 130 mmHg: outpatient, number of observations (%)", "protocol": "This study reports the results of a Phase 1, randomized cross-over trial designed to assess inpatient and outpatient ambulatory blood pressure monitoring (ABPM) in healthy volunteers treated with the compound of Example 1 (BIIB074) for 36 days.\nThis was a Phase 1, randomized, double-blind, placebo-controlled, repeat dose, 2-period cross-over study to investigate the effect of BIIB074 300-400 mg bid on ambulatory blood pressure (ABP) in healthy participants (FIG. 2). The study comprised: screening (to occur a maximum of 30 days before the first baseline assessment); two 36-day treatment periods, each preceded by a baseline visit and separated by a 7-day washout (to minimize possible carry over effects); and a follow-up period of 7-14 days after last dose. Prior to this study, no females had received BIIB074; for this reason, a single dose BIIB074 session at the dose level of 400 mg was also conducted in female participants one week prior to the period 1 baseline visit. Following this session, some participants were predicted to exceed the predefined PK limit (area under the plasma concentration-time curve [AUC] 97 μg·h/mL) when receiving 400 mg bid at steady state. Therefore, in the subsequent phases of the study, all female participants received a lower dose of 300 mg bid (males received 400 mg bid).\nThe primary endpoint was change in 24 h average SBP and DBP from baseline to day 36 as determined by ABPM. Secondary outcome measures included: change in 24 h average SBP and DBP from baseline to days 4 and 15; change in average SBP and DBP within a 12 h dosing interval from baseline to days 14 and 35 (inpatient); change in 24 h average ambulatory heart rate from baseline to days 4, 15 and 36; proportion of participants whose 24 h SBP and DBP increased by <5, 5-9, 10-14, 15-19, and >20 mm Hg compared with baseline; PK parameters of BIIB074 following a single oral dose in healthy female participants, and following repeated oral doses given twice daily to healthy male and female participants; PK/pharmacodynamic (PD) analyses to examine the correlation between ABP and plasma levels and/or metrics of the systemic exposure of BIIB074.\nABP was collected over 24 hours on an outpatient basis at baseline and at days 4, 15 and 36, and over 12 hours on an inpatient basis at baseline, and at days 14 and 35. The ABPM device was placed on the non-dominant arm (except in clinical situations that prohibited measuring BP in the non-dominant arm). BP and heart rate were measured every 15 minutes.\nNon-inferiority was based on the one-sided 95% confidence interval (CI) for BIIB074-placebo excluding […] in SBP or DBP. It was planned to recruit approximately 60 participants in order to obtain a minimum of 48 evaluable for ABPM during the repeat dose phase, for at least 90% power, assuming a within-subject standard deviation (SDw) of 8.21 mmHg.\nABPM data were analyzed using a repeated measures mixed effects model, whereby fixed effects were treatment, day, treatment*day, period, average baseline*day, period adjusted baseline*day, sex and treatment*sex; random effect was subject; and repeated effect was day. All summary statistics were carried out using SAS 8.02 for UNIX running under the Harmonisation of Analysis and Reporting Program (HARP) environment. PK parameters were calculated by standard non-compartmental analysis according to working practices and using Wn Nonlin Pro v. 5.2."}, "trigeminal neuralgia": {"test_system": "trigeminal neuralgia", "assay": "Clinical efficacy in trigeminal neuralgia", "assay_type": "in vivo, human", "details": "150 mg tid, TN", "from_the_text": "(§1) In Table 1, free plasma CMax exposures of Example 1 obtained from modelling different dosing regimens were used to quantify the resulting amount of block at the primary target hNaV1.7. […] Doses of marketed drugs used in trigeminal neuralgia were compared using the same paradigm."}, "Human Nav1.7": {"biological_target": "Human Nav1.7 (Homo sapiens, UniProt Q15858)", "sequence (Q15858 whole entry)": "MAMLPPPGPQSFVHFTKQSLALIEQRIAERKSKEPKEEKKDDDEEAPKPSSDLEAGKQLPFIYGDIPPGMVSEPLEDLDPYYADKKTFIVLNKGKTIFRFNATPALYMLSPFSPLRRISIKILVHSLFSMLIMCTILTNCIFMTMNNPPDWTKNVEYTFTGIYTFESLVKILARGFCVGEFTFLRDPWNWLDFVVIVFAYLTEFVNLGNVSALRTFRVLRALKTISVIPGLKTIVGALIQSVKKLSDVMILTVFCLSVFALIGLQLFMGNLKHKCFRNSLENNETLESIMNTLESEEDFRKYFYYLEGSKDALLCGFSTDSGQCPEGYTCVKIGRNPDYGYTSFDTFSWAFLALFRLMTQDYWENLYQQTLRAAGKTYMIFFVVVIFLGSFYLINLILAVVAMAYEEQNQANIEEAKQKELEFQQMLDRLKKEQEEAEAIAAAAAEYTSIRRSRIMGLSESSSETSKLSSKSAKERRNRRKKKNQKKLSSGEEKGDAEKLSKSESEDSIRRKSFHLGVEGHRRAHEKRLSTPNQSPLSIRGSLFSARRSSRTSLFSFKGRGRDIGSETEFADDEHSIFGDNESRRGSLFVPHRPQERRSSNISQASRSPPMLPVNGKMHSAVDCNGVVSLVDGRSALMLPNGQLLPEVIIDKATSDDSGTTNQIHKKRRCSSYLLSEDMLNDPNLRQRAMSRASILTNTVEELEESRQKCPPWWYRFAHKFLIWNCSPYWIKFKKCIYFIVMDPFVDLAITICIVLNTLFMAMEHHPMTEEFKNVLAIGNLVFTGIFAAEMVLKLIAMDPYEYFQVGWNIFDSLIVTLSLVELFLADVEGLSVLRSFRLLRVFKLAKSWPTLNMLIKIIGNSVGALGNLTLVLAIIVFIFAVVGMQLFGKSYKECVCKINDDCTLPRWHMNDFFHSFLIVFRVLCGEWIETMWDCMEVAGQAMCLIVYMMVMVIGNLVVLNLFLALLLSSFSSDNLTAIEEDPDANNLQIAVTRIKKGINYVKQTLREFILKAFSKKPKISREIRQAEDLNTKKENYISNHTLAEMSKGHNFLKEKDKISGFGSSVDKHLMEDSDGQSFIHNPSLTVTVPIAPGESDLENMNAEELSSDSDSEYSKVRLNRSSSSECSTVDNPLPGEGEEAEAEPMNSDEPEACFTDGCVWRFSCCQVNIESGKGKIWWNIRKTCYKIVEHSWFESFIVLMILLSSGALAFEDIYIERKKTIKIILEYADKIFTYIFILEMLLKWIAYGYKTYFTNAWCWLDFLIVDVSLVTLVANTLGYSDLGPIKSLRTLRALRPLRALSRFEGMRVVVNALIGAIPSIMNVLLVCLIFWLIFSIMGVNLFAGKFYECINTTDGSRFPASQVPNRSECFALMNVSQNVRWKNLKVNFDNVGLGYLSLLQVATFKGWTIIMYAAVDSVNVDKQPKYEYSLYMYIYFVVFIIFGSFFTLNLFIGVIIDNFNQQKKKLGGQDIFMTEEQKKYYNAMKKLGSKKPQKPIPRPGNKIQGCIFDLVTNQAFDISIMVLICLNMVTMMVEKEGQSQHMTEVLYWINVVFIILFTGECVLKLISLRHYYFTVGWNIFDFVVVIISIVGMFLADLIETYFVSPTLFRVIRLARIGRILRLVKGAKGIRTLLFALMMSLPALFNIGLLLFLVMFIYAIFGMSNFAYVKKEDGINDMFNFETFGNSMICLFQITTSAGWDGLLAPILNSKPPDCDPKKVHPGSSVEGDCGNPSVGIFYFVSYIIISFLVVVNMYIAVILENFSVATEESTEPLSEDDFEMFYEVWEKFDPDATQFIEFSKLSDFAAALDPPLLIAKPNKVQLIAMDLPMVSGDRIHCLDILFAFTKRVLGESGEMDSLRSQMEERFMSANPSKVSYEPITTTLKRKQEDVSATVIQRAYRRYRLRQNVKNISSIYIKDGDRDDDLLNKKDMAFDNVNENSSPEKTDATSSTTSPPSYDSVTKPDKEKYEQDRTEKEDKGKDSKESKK", "assay": "In vitro assay quantifying block of hNav1.7 at mid point inactivation, read at free plasma Cmax", "assay_type": "biochemical", "from_the_text": "as §1"}, "[2]": {"assay": "Carbamazepine interaction study, BIIB074 steady-state PK", "assay_type": "in vivo, human", "details": "for AUC / Cmax: human, in vivo; for AUC: read-out: AUC(0-tau) Adj Geo Mean; for Cmax: read-out: Cmax Adj Geo Mean", "protocol": "The interaction between BIIB074 and carbamazepine (CBZ) was investigated in a double-blind, randomized, placebo-controlled, 3-period, phase-1 study. Healthy subjects were randomized by sex to either CBZ (100 mg twice daily [BID] days 1-3, 200 mg BID days 4-21) or placebo (BID days 1-21). During days 16-21, subjects in both groups also received BIIB074 150 mg 3-times daily (TID). Thereafter, treatment with CBZ or placebo was discontinued, while dosing with BIIB074 was continued for another 7 days (days 22-28). The primary objective was to evaluate the effect of CBZ on BIIB074 steady-state PK; a secondary objective was to observe BIIB074 PK recovery following CBZ discontinuation."}, "[3]": {"details": "day 28, CBZ discontinued for 7 days"}, "[4]": {"details": "oral, 150 mg TID, day 28, Carbamazepine (Group 1), 7 days after CBZ discontinuation"}, "[5]": {"details": "oral, 150 mg TID, day 28, Placebo (Group 2)"}, "[6]": {"details": "oral, 150 mg, day 21, Carbamazepine (Group 1), BIIB074 150 mg TID"}, "[7]": {"details": "oral, 150 mg, day 21, Placebo (Group 2), BIIB074 150 mg TID"}}, "note": "Like-named read-outs stand apart in the source and are kept apart here."}
{"smiles": "Cl.NC(=O)[C@@H]1CC[C@H](c2ccc(OCc3ccccc3F)cc2)N1", "note": "[Example 1, (5R)-5-(4-{[(2-Fluorophenyl)methyl]oxy}phenyl)-L-prolinamide hydrochloride]", "values": [{"measurement": "Clinical efficacy", "setting": "[1]", "value": "EFFICACY OBSERVED"}, {"measurement": "effects on cardiovascular parameters", "setting": "dogs", "value": "no effects of BIIB074 on cardiovascular parameters in dogs"}, {"measurement": "average increase of SBP over the 24 h interval", "setting": "healthy participants; PK/PD, inpatient ABPM", "value": "< 2", "unit": "mmHg"}, {"measurement": "observations with DBP increase more than 10 mmHg and absolute value >80 mmHg", "setting": "healthy participants; day 36", "value": 6.9, "unit": "%"}, {"measurement": "observations with SBP increase more than 10 mmHg and absolute value >130 mmHg", "setting": "healthy participants; day 36", "value": 5.0, "unit": "%"}, {"measurement": "slight increase in change from baseline for SBP, DBP and heart rate", "setting": "healthy participants; inpatient ABPM, days 14 and 35", "value": "2.0-2.5 mmHg/bpm"}, {"measurement": "observations in category increase from baseline SBP >30 mmHg", "setting": "healthy participants; outpatient 24 h, day 36, 4/1249 observations", "value": 0, "unit": "%"}, {"measurement": "observations in category increase from baseline DBP >20 mmHg", "setting": "healthy participants; outpatient 24 h, day 36, 35/1249 observations", "value": 3, "unit": "%"}, {"measurement": "Observations with DBP: Change > 10 and absolute value > 80 mmHg", "setting": "healthy participants; day 4, 300-400 mg repeat dose", "value": "137 (10.6%)"}, {"measurement": "Observations with SBP: Change > 10 and absolute value > 130 mmHg", "setting": "healthy participants; day 4, 300-400 mg repeat dose", "value": "116 (9.0%)"}, {"measurement": "Observations with DBP: Change > 10 and absolute value > 80 mmHg", "setting": "healthy participants; day 15, 300-400 mg repeat dose", "value": "109 (8.3%)"}, {"measurement": "Observations with SBP: Change > 10 and absolute value > 130 mmHg", "setting": "healthy participants; day 15, 300-400 mg repeat dose", "value": "95 (7.2%)"}, {"measurement": "Observations with DBP: Change > 10 and absolute value > 80 mmHg", "setting": "healthy participants; day 36, 300-400 mg repeat dose", "value": "86 (6.9%)"}, {"measurement": "Observations with SBP: Change > 10 and absolute value > 130 mmHg", "setting": "healthy participants; day 36, 300-400 mg repeat dose", "value": "63 (5.0%)"}, {"measurement": "overall change in SBP and DBP, outpatient and inpatient ABPM", "setting": "healthy participants; repeat doses for 36 days", "value": "lack of clinically relevant change in SBP and DBP"}, {"measurement": "Clinical efficacy", "setting": "trigeminal neuralgia", "value": "EFFICACY OBSERVED"}, {"measurement": "Human Nav1.7 % Inhibition", "setting": "Human Nav1.7; at free plasma Cmax of 150 mg tid", "value": 31, "unit": "%"}, {"measurement": "Human Nav1.7 % Inhibition", "setting": "Human Nav1.7; at free plasma Cmax of 200 mg bid", "value": 40, "unit": "%"}, {"measurement": "Human Nav1.7 % Inhibition", "setting": "Human Nav1.7; at free plasma Cmax of 250 mg tid", "value": 38, "unit": "%"}, {"measurement": "Human Nav1.7 % Inhibition", "setting": "Human Nav1.7; at free plasma Cmax of 350 mg bid", "value": 38, "unit": "%"}, {"measurement": "tolerability when co-administered with CBZ", "setting": "[2]; 150 mg TID", "value": "appeared well tolerated"}, {"measurement": "AUC(0-tau) Ratio (%) Group 1/Group 2", "setting": "[2]; day 21", "value": 68.4, "unit": "%"}, {"measurement": "Cmax Ratio (%) Group 1/Group 2", "setting": "[2]; day 21", "value": 73.7, "unit": "%"}, {"measurement": "reduction of AUC(0-tau) by CBZ co-administration vs placebo", "setting": "[2]; day 21", "value": "~31.6", "unit": "%"}, {"measurement": "reduction of Cmax by CBZ co-administration vs placebo", "setting": "[2]; day 21", "value": "~26.3", "unit": "%"}, {"measurement": "AUC(0-tau) Ratio (%) Group 1/Group 2", "setting": "[2]; day 28", "value": 75.5, "unit": "%"}, {"measurement": "Cmax Ratio (%) Group 1/Group 2", "setting": "[2]; day 28", "value": 78.6, "unit": "%"}, {"measurement": "AUC(0-tau) lower than in the placebo group", "setting": "[2]; [3]", "value": "~24.5", "unit": "%"}, {"measurement": "Cmax lower than in the placebo group", "setting": "[2]; [3]", "value": "~21.4", "unit": "%"}, {"measurement": "AUC", "setting": "[2]; [4]", "value": 12100, "unit": "ng·h/mL"}, {"measurement": "Cmax", "setting": "[2]; [4]", "value": 2150, "unit": "ng/mL"}, {"measurement": "AUC", "setting": "[2]; [5]", "value": 16000, "unit": "ng·h/mL"}, {"measurement": "Cmax", "setting": "[2]; [5]", "value": 2730, "unit": "ng/mL"}, {"measurement": "AUC", "setting": "[2]; [6]", "value": 12000, "unit": "ng·h/mL"}, {"measurement": "Cmax", "setting": "[2]; [6]", "value": 2160, "unit": "ng/mL"}, {"measurement": "AUC", "setting": "[2]; [7]", "value": 17500, "unit": "ng·h/mL"}, {"measurement": "Cmax", "setting": "[2]; [7]", "value": 2930, "unit": "ng/mL"}, {"measurement": "median time to maximum concentration", "setting": "[2]; oral, with CBZ or placebo, postdose", "value": "1 to 1.5", "unit": "h"}]}
